Experimental data taken from article PMC5405074, “Receptor-Mediated Melanoma Targeting with Radiolabeled α-Melanocyte-Stimulating Hormone: Relevance of the Net Charge of the Ligand” (Frontiers in Endocrinology, 2017).
Read-outs that look alike come from different tables or passages of the source.

What was measured:
MC1R (B16-F1 cells) = target: T1, MC1R (B16-F1 cells) (Mus musculus, UniProt Q01727); assay: Competition binding assay with [^125I]-NDP-MSH, mouse B16-F1 melanoma cells; conditions: B16-F1 cells, [^125I]-NDP-MSH competition, 15°C, 3 h; n = 3–20; ± SEM; ^c = P < 0.05 vs. DOTA-NAP-amide; read-out: Receptor-binding potency IC50
T1 construct: endogenous in cells; host or cells: mouse B16-F1 melanoma cells
Description: (§1) Triplicates of 100-µL volumes of B16-F1 or HBL cell suspensions adjusted to 4 × 10^6/mL were incubated in 96-well U-bottom microplates (Falcon 3077). The binding medium consisted of MEM with Earle’s salts, 0.2% BSA, and 0.3 mM 1,10-phenanthroline. This binding medium was called mouse binding medium (MBM). Triplicates of competitor peptide solution (50 µL) yielding final concentrations ranging from 1 × 10^−6 to 1 × 10^−12 M were added. [^125I]NDP-MSH (50,000 cpm) in 50 µL was finally added to each well. The plates were incubated at 15°C for 3 h for B16-F1 cells and at 37°C for 2 h for HBL cells. The incubation was stopped by covering the plates with ice for 10 min. A cell harvester was used to collect cell-bound radioactivity on filters (Packard Unifilter-96 GF/B). The collected radioactivity was counted on a TopCount scintillation counter (Packard) after addition of 50 µL Microscint-20 scintillation cocktail (Perkin Elmer). The IC50 values were calculated with the Prism 6 software (GraphPad Software Inc., San Diego CA, USA).
(§2) The binding affinity of the peptides to MC1R was assessed by competition binding assays using [^125I]-NDP-MSH as radioligand and both murine B16-F1 and human HBL cells.

[1] = Biodistribution of ^111In-labeled peptides in B16-F1 melanoma-bearing mice; assay type: in vivo, mouse (B6D2F1); conditions: female, iv, total radioactivity, ^111In-labeled peptide, 185 kBq i.v., mean ± SEM of three experiments, n = 5 animals each
Description: About 5 × 10^5 B16-F1 cells were implanted subcutaneously to female B6D2F1 mice (C57BL/6 × DBA/2F1 hybrids; breeding pairs obtained from IFFA-CREDO, France). Seven days later, 185 kBq of ^111In-labeled ligand in 200 µL PBS/0.1% BSA were injected intravenously into the lateral tail vein of each mouse. Control mice were injected with a mixture of the tracer and 50 µg α-MSH to determine the non-specific uptake of radioligand. The animals were sacrificed 4, 24, and 48 h postinjection, dissected, and the tissues of interest collected, rinsed of excess blood, and weighed. The radioactivity emitted by each organ was measured in a γ-counter to determine the tissue uptake as percentage of the injected dose (ID) per gram of tissue. The total of injected radioactivity per animal was determined by extrapolation from the counts of a standard collected from the injection solution for each animal. Urine samples were collected at 10, 15, and 20 min and 4 h after injection and kept frozen at −80°C until use. Urine (1 vol) was mixed with methanol (2 vol) to precipitate proteins, and the supernatant was analyzed by RP-HPLC/γ-detection, as described in Ref. ([12]).
Results are expressed as means ± SEM, unless otherwise stated. The statistical evaluation of data was performed using the one- or two-way ANOVA test. When significant overall effects were obtained by ANOVA, multiple comparisons were made with the Bonferroni correction. P < 0.05 was considered statistically significant. The area under the curve (AUC) was calculated with the GraphPad Prism 6 software for the indicated period of time, using the mean tissue uptake value at each time point.

MC1R (HBL cells) = target: T2, MC1R (HBL cells) (Homo sapiens, UniProt Q01726); assay: Competition binding assay with [^125I]-NDP-MSH, human HBL melanoma cells; conditions: HBL cells, [^125I]-NDP-MSH competition, 37°C, 2 h; n = 3–20; ± SEM; ^c = P < 0.05 vs. DOTA-NAP-amide; read-out: Receptor-binding potency IC50
T2 construct: endogenous in cells; host or cells: human HBL melanoma cell line
Description: as §1, §2

[2] = B6D2F1 (C57BL/6 × DBA/2F1 hybrids), mouse, blood, read-out: Blood uptake
[3] = B6D2F1 (C57BL/6 × DBA/2F1 hybrids), mouse, muscle, read-out: Muscle uptake
[4] = B6D2F1 (C57BL/6 × DBA/2F1 hybrids), mouse, tumor, read-out: Tumor uptake
[5] = B6D2F1, mouse, bone, read-out: Bone uptake
[6] = B6D2F1, mouse, heart, read-out: Heart uptake
[7] = B6D2F1, mouse, kidney, read-out: Kidney uptake
[8] = B6D2F1, mouse, liver, read-out: Liver uptake
[9] = B6D2F1, mouse, lung, read-out: Lung uptake
[10] = B6D2F1, mouse, pancreas, read-out: Pancreas uptake
[11] = B6D2F1, mouse, small intestines, read-out: Small intestines uptake
[12] = B6D2F1, mouse, spleen, read-out: Spleen uptake
[13] = B6D2F1, mouse, stomach, read-out: Stomach uptake

T1 sequence (Q01727 whole entry): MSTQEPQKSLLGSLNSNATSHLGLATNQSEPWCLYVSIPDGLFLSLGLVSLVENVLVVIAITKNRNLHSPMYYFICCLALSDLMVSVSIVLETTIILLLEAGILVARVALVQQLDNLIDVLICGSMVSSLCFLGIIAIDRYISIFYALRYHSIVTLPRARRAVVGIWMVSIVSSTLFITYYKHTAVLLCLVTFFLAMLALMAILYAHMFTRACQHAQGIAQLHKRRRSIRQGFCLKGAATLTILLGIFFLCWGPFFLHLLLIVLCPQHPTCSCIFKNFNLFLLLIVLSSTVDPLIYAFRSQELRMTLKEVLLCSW
T2 sequence (Q01726 whole entry): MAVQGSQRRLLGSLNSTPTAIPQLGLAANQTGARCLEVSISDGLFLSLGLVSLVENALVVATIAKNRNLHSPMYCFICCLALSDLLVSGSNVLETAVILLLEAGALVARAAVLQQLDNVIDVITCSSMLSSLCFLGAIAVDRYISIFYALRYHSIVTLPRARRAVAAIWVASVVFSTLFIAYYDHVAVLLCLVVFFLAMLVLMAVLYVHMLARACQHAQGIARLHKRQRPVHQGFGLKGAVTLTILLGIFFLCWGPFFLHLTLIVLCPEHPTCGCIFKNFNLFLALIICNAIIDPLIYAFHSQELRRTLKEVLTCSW

CCCC[C@H](NC(C)=O)C(=O)N[C@@H](CC(=O)O)C(=O)N[C@@H](Cc1c[nH]cn1)C(=O)N[C@H](Cc1ccccc1)C(=O)N[C@@H](CCCNC(=N)N)C(=O)N[C@@H](Cc1c[nH]c2ccccc12)C(=O)NCC(=O)N[C@@H](CCCCNC(=O)CN1CCN(CC(=O)O)CCN(CC(=O)O)CCN(CC(=O)O)CC1)C(N)=O [DOTA-NAP-amide, [Ac-Nle^4,Asp^5,D-Phe^7,Lys^11(DOTA)]-α-MSH4-11, reference compound]
IC50 (MC1R (B16-F1 cells)): 1.38 ± 0.35 nM | tissue uptake at 4 h [1, 2]: 0.09 ± 0.02 %ID/g | tissue uptake at 24 h [1, 2]: 0.02 %ID/g | tissue uptake at 48 h ([1]; B6D2F1 (C57BL/6 × DBA/2F1 hybrids), mouse, bone, read-out: Bone uptake): 0.05 ± 0.01 %ID/g | tissue uptake at 4 h [1, 3]: 0.05 ± 0.01 %ID/g | tissue uptake at 24 h [1, 3]: 0.02 %ID/g | tissue uptake at 48 h [1, 3]: 0.01 %ID/g | tissue uptake at 24 h [1, 4]: 2.32 ± 0.15 %ID/g | tissue uptake at 48 h [1, 4]: 1.41 ± 0.12 %ID/g | tissue uptake at 4 h [1, 5]: 0.11 ± 0.02 %ID/g | tissue uptake at 24 h [1, 5]: 0.14 ± 0.02 %ID/g | tissue uptake at 4 h [1, 6]: 0.05 ± 0.01 %ID/g | tissue uptake at 24 h [1, 6]: 0.03 %ID/g | tissue uptake at 48 h [1, 6]: 0.01 %ID/g | tissue uptake at 24 h [1, 7]: 2.41 ± 0.2 %ID/g | tissue uptake at 48 h [1, 7]: 1.55 ± 0.07 %ID/g | tissue uptake at 4 h [1, 8]: 0.34 ± 0.05 %ID/g | tissue uptake at 24 h [1, 8]: 0.31 ± 0.02 %ID/g | tissue uptake at 48 h [1, 8]: 0.27 ± 0.07 %ID/g | tissue uptake at 4 h [1, 9]: 0.08 ± 0.01 %ID/g | tissue uptake at 24 h [1, 9]: 0.05 ± 0.01 %ID/g | tissue uptake at 48 h [1, 9]: 0.03 %ID/g | tissue uptake at 4 h [1, 10]: 0.04 %ID/g | tissue uptake at 24 h [1, 10]: 0.03 %ID/g | tissue uptake at 48 h [1, 10]: 0.02 %ID/g | tissue uptake at 4 h [1, 11]: 0.07 ± 0.01 %ID/g | tissue uptake at 24 h [1, 11]: 0.08 ± 0.01 %ID/g | tissue uptake at 48 h [1, 11]: 0.05 ± 0.01 %ID/g | tissue uptake at 4 h [1, 12]: 0.14 ± 0.01 %ID/g | tissue uptake at 24 h [1, 12]: 0.11 ± 0.01 %ID/g | tissue uptake at 48 h [1, 12]: 0.1 ± 0.01 %ID/g | tissue uptake at 4 h [1, 13]: 0.09 ± 0.01 %ID/g | tissue uptake at 24 h [1, 13]: 0.12 ± 0.02 %ID/g | tissue uptake at 48 h [1, 13]: 0.11 ± 0.05 %ID/g | IC50 (MC1R (HBL cells)): 3.09 ± 1.11 nM
